For 5 compounds, IC50 results are on record in US7951810B2, “Substituted pyrrolo[2,3-d]pyrimidines as inhibitors of E1 activating enzymes” (Millennium Pharmaceuticals, Inc., priority 2005, dated 2011).

The experiment concerns the target T1, recombinant human NAE enzyme (Homo sapiens, UniProt Q8TBC4).
T1 construct: His (N); made in house; host or cells: Sf9 insect cells (baculovirus, Bac-to-Bac)
T1 sequence (Q8TBC4 1-463): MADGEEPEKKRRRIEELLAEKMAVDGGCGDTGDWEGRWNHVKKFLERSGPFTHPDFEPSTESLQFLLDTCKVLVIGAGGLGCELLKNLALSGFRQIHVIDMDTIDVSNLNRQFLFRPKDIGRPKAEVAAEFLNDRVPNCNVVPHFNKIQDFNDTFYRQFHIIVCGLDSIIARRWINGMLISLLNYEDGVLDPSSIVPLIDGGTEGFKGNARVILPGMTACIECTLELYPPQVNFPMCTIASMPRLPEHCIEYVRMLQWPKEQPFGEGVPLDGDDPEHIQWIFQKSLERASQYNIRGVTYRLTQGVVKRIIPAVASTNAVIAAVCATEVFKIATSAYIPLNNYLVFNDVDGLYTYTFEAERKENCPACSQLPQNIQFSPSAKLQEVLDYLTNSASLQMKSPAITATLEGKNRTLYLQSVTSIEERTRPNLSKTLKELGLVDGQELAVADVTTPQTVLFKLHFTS
T1 sequence (Q13564 1-534 partner): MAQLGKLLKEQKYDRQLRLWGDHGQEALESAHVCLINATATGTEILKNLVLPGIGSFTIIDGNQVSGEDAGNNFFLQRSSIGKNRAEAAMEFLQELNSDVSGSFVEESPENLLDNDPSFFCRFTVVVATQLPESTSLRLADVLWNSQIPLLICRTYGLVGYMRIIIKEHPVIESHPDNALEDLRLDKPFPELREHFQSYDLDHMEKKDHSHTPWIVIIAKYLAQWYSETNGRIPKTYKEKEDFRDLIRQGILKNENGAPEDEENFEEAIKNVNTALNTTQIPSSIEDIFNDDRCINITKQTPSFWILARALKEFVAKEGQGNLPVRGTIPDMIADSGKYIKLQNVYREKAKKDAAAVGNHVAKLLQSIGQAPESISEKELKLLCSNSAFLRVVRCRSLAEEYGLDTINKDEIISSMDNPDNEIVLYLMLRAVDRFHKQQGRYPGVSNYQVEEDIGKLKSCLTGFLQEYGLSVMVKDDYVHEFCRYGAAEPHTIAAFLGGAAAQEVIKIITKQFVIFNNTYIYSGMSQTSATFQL
Put plainly: Nedd8-Activating Enzyme (NAE) HTRF assay. In kind it is biochemical. Particulars: 20 μM ATP, 90 minutes at 24° C. The protocol:
Following manufacturer instructions, baculoviruses were generated with the Bac-to-Bac Expression System (Invitrogen) for the following proteins: untagged NAEα (APPBP1; NP_003896.1), N-terminally His-tagged NAEβ (UBE1C; NP_003959.3), untagged SAEα (SAE1; NP_005491.1), N-terminally His-tagged SAEβ (UBA2; NP_005490.1), N-terminally His-tagged murine UAE (UBE1X; NP_033483). NAEα/His-NAEβ and SAEα/His-SAEβ complexes were generated by co-infection of Sf9 cells, which were harvested after 48 hours. His-mUAE was generated by single infection of Sf9 cells and harvested after 72 hours. Expressed proteins were purified by affinity chromatography (Ni-NTA agarose, Qiagen) using standard buffers.
Ubc12 (UBE2M; NP_003960.1), Ubc9 (UBE2I; NP_003336.1), Ubc2 (UBE2A; NP_003327.2) were subcloned into pGEX (Pharmacia) and expressed as N-terminally GST tagged fusion proteins in E. coli. Expressed proteins were purified by conventional affinity chromatography using standard buffers.
Nedd8 (NP_006147), Sumo-1 (NP_003343) and Ubiquitin (with optimized codons) were subcloned into pFLAG-2 (Sigma) and expressed as N-terminally Flag tagged fusion proteins in E. coli. Expressed proteins were purified by conventional chromatography using standard buffers.
Nedd8-Activating Enzyme (NAE) HTRF Assay.
The NAE enzymatic reaction totaled 50 μL and contained 50 mM HEPES (pH 7.5), 0.05% BSA, 5 mM MgCl2, 20 μM ATP, 250 μM GSH, 0.01 μM Ubc12-GST, 0.075 μM Nedd8-Flag and 0.28 nM recombinant human NAE enzyme. The enzymatic reaction mixture, with and without compound inhibitor, was incubated at 24° C. for 90 minutes in a 384-well plate before termination with 25 μL of Stop/Detection buffer (0.1M HEPES pH 7.5, 0.05% Tween20, 20 mM EDTA, 410 mM KF, 0.53 nM Europium-Cryptate labeled monoclonal anti-FLAG M2 antibody (CisBio International) and 8.125 μg/mL PHYCOLINK goat anti-GST allophycocyanin (XL-APC) antibody (Prozyme)). After incubation for 3 hours at 24° C., quantification of the FRET was performed on the Analyst™ HT 96.384 (Molecular Devices).
Background: Time-resolved FRET reads energy transfer from a long-lived donor to a nearby acceptor.

The mark [1] stands for this setting: threshold less than or equal to 100 nM.
The mark [2] stands for this setting: threshold less than or equal to 1 μM.

In general, IC50 refers to the point on the concentration scale where inhibition reaches its midpoint.

Turning to `NS(=O)(=O)OC[C@H]1O[C@@H](n2cnc3c(N[C@H]4CCc5ccccc54)ncnc32)C[C@@H]1O` [Compound I-1, ((2R,3S,5R)-5-{6-[(1S)-2,3-dihydro-1H-inden-1-ylamino]-9H-purin-9-yl}-3-hydroxytetrahydrofuran-2-yl)methyl sulfamate], the IC50 is at most 100 nM under setting [1] and at most 1000 nM under setting [2].

As to `C[C@@H](OS(N)(=O)=O)[C@H]1O[C@@H](n2cnc3c(N[C@H]4CCc5ccccc54)ncnc32)[C@H](O)[C@@H]1O` [Compound I-58, (R)-1-((2S,3S,4R,5R)-5-(6-((S)-2,3-dihydro-1H-inden-1-ylamino)-9H-purin-9-yl)-3,4-dihydroxy-tetrahydrofuran-2-yl)ethyl sulfamate], the IC50 is, setting by setting: under setting [1], at most 100 nM; under setting [2], at most 1000 nM. The corresponding values for `COCCc1ncnc2c1ncn2[C@@H]1O[C@H](COS(N)(=O)=O)[C@@H](O)[C@H]1O` [Compound I-137, {(2R,3S,4R,5R)-3,4-dihydroxy-5-[6-(2-methoxyethyl)-9H-purin-9-yl]tetrahydrofuran-2-yl}methyl sulfamate] are at most 100 nM and at most 1000 nM.

For the compound `Cn1cc(CNc2ncnc3c2ncn3[C@@H]2O[C@H](CNS(N)(=O)=O)[C@@H](O)[C@H]2O)cn1` [Compound I-38, N-{[(2R,3S,4R,5R)-3,4-dihydroxy-5-(6-{[(1-methyl-1H-pyrazol-4-yl)methyl]-amino}-9H-purin-9-yl)tetrahydrofuran-2-yl]methyl}sulfamide], the IC50 under setting [2] is at most 1000 nM. As for `NS(=O)(=O)NC[C@H]1O[C@@H](n2cnc3c(NCc4ccc(F)cc4)ncnc32)[C@H](O)[C@@H]1O` [Compound I-126, N-[((2R,3S,4R,5R)-5-{6-[(4-fluorobenzyl)amino]-9H-purin-9-yl}-3,4-dihydroxytetrahydrofuran-2-yl)methyl]sulfamide], the IC50 was at most 100 nM under setting [1] and at most 1000 nM under setting [2].
